The values that follow are results of earlier work, collected in patent US20110229584A1, “Compound for the control of herpes simplex virus using glycyrrhizic acid, lipoic acid, allantoin, and slippery elm” (priority 2010, published 2011).

The test system of series [1] is HSV-1. Particulars: applied topically to infected epidermal areas.
Series [2] has as its system HSV-1.
For series [3], the system named is human aortic endothelial cells.
Series [4] deals with severe acute respiratory syndrome (SARS).
The next series relates to zoster. Particulars: incubated with the viruses for more than 30 minutes.
The test system of another series is Epstein-Barr. Particulars: incubated with the viruses for more than 30 minutes.
In the next series the test system is HSV-2. Particulars: incubated with the viruses for more than 30 minutes.
Series [5] concerns HSV-1. This is another data set of the same source.

For the compound `Cl.NCCCC[C@H](N)C(=O)O` [Lysine monohydrochloride, L-Lysine Monohydrochloride], in the series on HSV-1 [1], the “inactivation of HSV-1” value is “not to be able to inactivate”.
In the case of `Nc1nc2c(ncn2CCC(CO)CO)c(=O)[nH]1` [Penciclovir], the “decrease of pain duration” value with HSV-1 [2] (from 4.1 days) is given as 0.6 days. In the series on HSV-1 [2] (treated group), the “healing time of the lesions with treatment” value is 4.8 days and the “pain duration with treatment” value is given as 3.5 days. The lesion virus shedding entry in the series on HSV-1 [2] (versus placebo) was “marginally changed”. Further, the “healing of the lesions faster versus placebo” value with HSV-1 [2] (versus placebo 5.5 days) is 0.7 days.
With `O=C(O)CCCCC1CCSS1` (stereo not drawn) [Lipoic acid, alpha-Lipoic acid], in [3], the “LPS-caused expression of cellular adhesion molecules and adherence of monocytes to human aortic endothelial cells” value was “inhibit”; the “LPS-triggered NF-B DNA binding activities” value is reported as “inhibited”.
Consider `CC1(C)[C@@H](O)CC[C@]2(C)[C@H]3C(=O)C=C4[C@@H]5C[C@@](C)(C(=O)O)CC[C@]5(C)CC[C@@]4(C)[C@]3(C)CC[C@@H]12` [glycrrhetic acid], for which the “inhibition of severe acute respiratory syndrome (SARS)” value in [4] is on record as “inhibit”.
Turning to `CC1(C)[C@@H](O[C@H]2O[C@H](C(=O)O)[C@@H](O)[C@H](O)[C@H]2O[C@@H]2O[C@H](C(=O)O)[C@@H](O)[C@H](O)[C@H]2O)CC[C@]2(C)[C@H]3C(=O)C=C4[C@@H]5C[C@@](C)(C(=O)O)CC[C@]5(C)CC[C@@]4(C)[C@]3(C)CC[C@@H]12` [Glycyrrhizic acid], the inactivation of zoster entry in the series on zoster is recorded as “more than 90%”. In the series with Epstein-Barr, the “inactivation of Epstein-Barr” value is “more than 90%”. In the series with HSV-2, the “inactivation of HSV-2” value is given as “more than 90%”. Besides, the “growth and cytopathic effect of vaccinia” value with vaccinia is “inhibit”. Besides, in the series with Herpes simplex (HSV), the “deactivation of HSV” value was “irreversibly deactiveate”; the “growth and cytopathic effect of Herpes simplex (HSV)” value is “inhibit”. Also, in the series on Newcastle's Disease, the “growth and cytopathic effect of Newcastle's Disease” value is given as “inhibit”. The “growth and cytopathic effect of vesicular viomantitis” value with vesicular viomantitis was “inhibit”. Further, in series [4], the “inhibition of severe acute respiratory syndrome (SARS)” value was “inhibit”. Also, in the series on HSV-1 [5] (in vivo), the “activity against in vivo HSV-1” value is given as “strong activity”. Also, the “resistance of thermally injured mice to HSV-1” value in the series on HSV-1 [5] (thermally injured mice) is “improve”.
Consider `CCCCCCCCCCCCCCCCCCCCCCO` [Docosanol, docosanol], for which the “decrease of mean time of healing” value in the series with HSV (both treatment phases, applied early in the stages of infection) was “more than 50%”. The “healing time of first episodes with treatment (average)” value in the series on HSV (first episodes) was 5.4 days. The “reduction of healing times of first episodes (average)” value in the series on HSV (first episodes, from 7.3 days) was 1.9 days.
